This experiment deals with T1, SIRT1 (Homo sapiens, UniProt Q96EB6).
T1 sequence (Q96EB6 1-747): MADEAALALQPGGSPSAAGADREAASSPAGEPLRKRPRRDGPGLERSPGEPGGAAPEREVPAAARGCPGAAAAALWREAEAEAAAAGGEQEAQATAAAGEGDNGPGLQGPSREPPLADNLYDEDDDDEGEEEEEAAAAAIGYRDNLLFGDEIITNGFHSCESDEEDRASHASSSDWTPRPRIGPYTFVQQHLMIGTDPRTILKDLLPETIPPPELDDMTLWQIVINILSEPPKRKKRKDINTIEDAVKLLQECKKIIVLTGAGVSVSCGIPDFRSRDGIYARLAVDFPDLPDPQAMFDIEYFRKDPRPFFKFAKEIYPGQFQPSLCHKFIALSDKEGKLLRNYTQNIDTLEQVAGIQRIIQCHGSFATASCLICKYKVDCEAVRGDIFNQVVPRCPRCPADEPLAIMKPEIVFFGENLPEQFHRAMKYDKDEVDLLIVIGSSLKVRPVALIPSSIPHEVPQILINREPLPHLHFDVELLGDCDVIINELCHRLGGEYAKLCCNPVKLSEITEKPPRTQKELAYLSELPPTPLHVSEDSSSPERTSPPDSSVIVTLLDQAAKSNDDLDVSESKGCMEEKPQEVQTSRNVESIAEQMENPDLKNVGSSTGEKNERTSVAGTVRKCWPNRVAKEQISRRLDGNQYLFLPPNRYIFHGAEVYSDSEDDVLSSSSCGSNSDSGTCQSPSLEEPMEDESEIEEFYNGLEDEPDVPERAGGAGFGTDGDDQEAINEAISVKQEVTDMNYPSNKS
Nature of the experiment: SIRT1 mass spectrometry (MS) based deacetylation assay. On FOLD ACT. MS: test concentration or dose not given here. It counts as biochemical.

Setting [1] is: SIRT1 activation, mass spectrometry assay, read-out: ED50 MS ASSAY.
Where [2] appears, read: fold activation of SIRT1 as determined by MS.
Where [3] appears, read: fold activation of SIRT1, mass spectrometry assay.

The structures appear in SMILES notation. Read-outs that look alike come from different tables or passages of the source.

On to `COc1ccc(C(=O)Nc2cccc(-c3nc4cccnc4[nH]3)c2)cc1OC` [Compound 185], for which the EC50 under setting [1] is less than 5 µM. Besides, the “FOLD ACT. MS” value under setting [2] is “A (A (Fold activation >250%))”.
Turning to `COc1cc(C)ccc1C(=O)Nc1ccc(-c2cc3cccnc3o2)cc1` [Compound 187], the EC50 under setting [1] lay within 5 to 50 µM. Besides, under setting [2], the “FOLD ACT. MS” value is given as “B (B (Fold Activation <250%))”.
Taken in the same sequence, the figures for `COc1ccc(C(=O)Nc2ccc(-c3cc4cccnc4o3)cc2)c(OC)c1` [Compound 190] were less than 5 µM and “B (B (Fold Activation <250%))”.
In the same order, the values of `COc1ccc(C(=O)Nc2cccc(-c3cc4cccnc4o3)c2)c(OC)c1` [Compound 191] are less than 5 µM and “B (B (Fold Activation <250%))”.
In the same order, the values of `COc1ccc(C(=O)Nc2cccc(-c3cc4cccnc4o3)c2)cc1OC` [Compound 192] are 5 to 50 µM and “B (B (Fold Activation <250%))”.
As to `CN(C)c1cccc(C(=O)Nc2ccc(-c3nc4ncccc4s3)cc2)c1` [Compound 196], under setting [1], the EC50 was 5 to 50 µM. In addition, under setting [2], the “FOLD ACT. MS” value was “B (B (Fold Activation <250%))”.
In the same order, the values of `COc1ccc(C(=O)Nc2ccc(-c3nc4ncccc4s3)cc2)cc1OC` [Compound 197] are less than 5 µM and “B (B (Fold Activation <250%))”.
With `COc1ccc(C(=O)Nc2cccc(-c3nc4ncccc4s3)c2)c(OC)c1OC` [Compound 198], the EC50 under setting [1] was 5 to 50 µM. In addition, the “FOLD ACT. MS” value under setting [2] was “B (B (Fold Activation <250%))”.
Taken in the same sequence, the figures for `COc1cc(C)ccc1C(=O)Nc1cccc(-c2nc3ncccc3s2)c1` [Compound 199] were less than 5 µM and “B (B (Fold Activation <250%))”.
Regarding `CN(C)c1cccc(C(=O)Nc2cccc(-c3nc4ncccc4s3)c2)c1` [Compound 200], the EC50 is less than 5 µM. Moreover, the “FOLD ACT. MS” value under setting [2] was “B (B (Fold Activation <250%))”.
Turning to `COc1ccc(C(=O)Nc2cccc(-c3nc4ncccc4s3)c2)cc1OC` [Compound 201], the EC50 under setting [1] was in the range of 5 to 50 µM. Also, under setting [2], the “FOLD ACT. MS” value is reported as “B (B (Fold Activation <250%))”.
For `COc1ccc(C(=O)Nc2cccc(-c3nc4ncccc4s3)c2)c(OC)c1` [Compound 202], the EC50 under setting [1] was less than 5 µM. Also, under setting [2], the “FOLD ACT. MS” value is listed as “B (B (Fold Activation <250%))”.
In the same order, the values of `COc1ccc(C(=O)Nc2ccccc2-c2cn3ccsc3n2)cc1OC` [Compound 203] are less than 5 µM and “B (B (Fold Activation <250%))”.
Taken in the same sequence, the figures for `COc1cc(C(=O)Nc2ccccc2-c2cn3ccsc3n2)cc(OC)c1OC` [Compound 204] were less than 5 µM and “A (A (Fold activation >250%))”.
Taken in the same sequence, the figures for `COc1ccc(C(=O)Nc2ccccc2-c2cn3c(CN(C)C)csc3n2)cc1OC` [Compound 205] were 5 to 50 µM and “A (A (Fold activation >250%))”.
As to `COc1cc(C(=O)Nc2ccccc2-c2cn3c(CN(C)C)csc3n2)cc(OC)c1OC` [Compound 206], the EC50 under setting [1] was in the range of 5 to 50 µM. Also, the “FOLD ACT. MS” value under setting [2] is reported as “A (A (Fold activation >250%))”.
`COc1ccc(C(=O)Nc2ccccc2-c2cn3c(CN4CCNCC4)csc3n2)cc1OC` [Compound 207]: the EC50 under setting [1] was in the range of 5 to 50 µM. Moreover, under setting [2], the “FOLD ACT. MS” value is listed as “A (A (Fold activation >250%))”.
In the same order, the values of `COc1cc(C(=O)Nc2ccccc2-c2cn3c(CN4CCNCC4)csc3n2)cc(OC)c1OC` [Compound 208] are 5 to 50 µM and “A (A (Fold activation >250%))”.
In the same order, the values of `COc1ccc(C(=O)Nc2ccccc2-c2cn3c(CN4CCOCC4)csc3n2)cc1OC` [Compound 209] are 5 to 50 µM and “A (A (Fold activation >250%))”.
In the same order, the values of `COc1cc(C(=O)Nc2ccccc2-c2cn3c(CN4CCOCC4)csc3n2)cc(OC)c1OC` [Compound 210] are 5 to 50 µM and “B (B (Fold Activation <250%))”.
For `COc1ccc(C(=O)Nc2cccc(-c3nc4ccccc4[nH]3)c2)c(OC)c1` [Compound 211], under setting [1], the EC50 was less than 5 µM. Further, the “FOLD ACT. MS” value under setting [2] was “B (B (Fold Activation <250%))”.
In the same order, the values of `COc1cccc(C(=O)Nc2cccc(-c3nc4cccnc4s3)c2)c1` [Compound 212] are 5 to 50 µM and “B (B (Fold Activation <250%))”.
On to `COc1ccc(C(=O)Nc2cccc(-c3nc4cccnc4s3)c2)c(OC)c1` [Compound 213], for which the EC50 under setting [1] is less than 5 µM. Moreover, the “FOLD ACT. MS” value under setting [2] is recorded as “B (B (Fold Activation <250%))”.
For the compound `COc1cccc(C(=O)Nc2cccc(-c3nc4cccnc4s3)c2)c1OC` [Compound 214], the EC50 under setting [1] is 5 to 50 µM. Also, under setting [2], the “FOLD ACT. MS” value is recorded as “B (B (Fold Activation <250%))”.
As for `COc1cc(OC)cc(C(=O)Nc2cccc(-c3nc4cccnc4s3)c2)c1` [Compound 215], under setting [1], the EC50 was less than 5 µM. In addition, the “FOLD ACT. MS” value under setting [2] is listed as “B (B (Fold Activation <250%))”.
For `COc1ccc(C(=O)Nc2cccc(-c3nc4cccnc4s3)c2)cc1` [Compound 216], the EC50 under setting [1] was less than 5 µM. In addition, the “FOLD ACT. MS” value under setting [2] is listed as “B (B (Fold Activation <250%))”.
Taken in the same sequence, the figures for `COc1cc(C(=O)Nc2cccc(-c3nc4cccnc4s3)c2)cc(OC)c1OC` [Compound 217] were less than 5 µM and “A (A (Fold activation >250%))”.
In the case of `COc1cc(C(=O)Nc2cccc(-c3cn4cccnc4n3)c2)cc(OC)c1OC` [Compound 218], the EC50 under setting [1] is less than 5 µM. Under setting [3], the “FOLD ACT. MS” value is listed as “A (A (Fold activation >250%))”.
On to `COc1cc(C(=O)Nc2cccc(-c3nc4ncccn4c3C)c2)cc(OC)c1OC` [Compound 219], for which the EC50 under setting [1] was 5 to 50 µM. In addition, the “FOLD ACT. MS” value under setting [3] is reported as “A (A (Fold activation >250%))”.
For the compound `O=C(Nc1cccc(-c2nc3ccncc3s2)c1)c1ccco1` [Compound 221], under setting [1], the EC50 lay within 5 to 50 µM. In addition, the “FOLD ACT. MS” value under setting [3] is “B (B (Fold Activation <250%))”.
Taken in the same sequence, the figures for `O=C(Nc1cccc(-c2nc3ccncc3s2)c1)c1cccnc1Cl` [Compound 222] were 5 to 50 µM and “B (B (Fold Activation <250%))”.
With `O=C(Nc1cccc(-c2nc3ccncc3s2)c1)c1cccs1` [Compound 223], under setting [1], the EC50 is less than 5 µM. For the same compound, the “FOLD ACT. MS” value under setting [3] is recorded as “B (B (Fold Activation <250%))”.
With `Cc1cc(C(=O)Nc2cccc(-c3nc4ccncc4s3)c2)n(C(C)(C)C)n1` [Compound 228], under setting [1], the EC50 was 5 to 50 µM. The “FOLD ACT. MS” value under setting [3] is “A (A (Fold activation >250%))”.
Take `O=C(Nc1cccc(-c2nc3ccncc3s2)c1)c1ccc(-c2ccccc2)o1` [Compound 241]: under setting [1], the EC50 is less than 5 µM. Under setting [3], the “FOLD ACT. MS” value is listed as “B (B (Fold Activation <250%))”.
In the same order, the values of `O=C(Nc1cccc(-c2nc3ccncc3s2)c1)c1ccccc1Oc1ccccc1` [Compound 245] are less than 5 µM and “B (B (Fold Activation <250%))”.
Consider `Cn1nc(C(C)(C)C)cc1C(=O)Nc1cccc(-c2nc3ccncc3s2)c1` [Compound 246], for which the EC50 under setting [1] was less than 5 µM. The “FOLD ACT. MS” value under setting [3] was “B (B (Fold Activation <250%))”.
In the same order, the values of `O=C(Nc1cccc(-c2nc3ccncc3s2)c1)c1cc(C(F)(F)F)ccc1C(F)(F)F` [Compound 248] are 5 to 50 µM and “B (B (Fold Activation <250%))”.
Taken in the same sequence, the figures for `COc1ccc(C(=O)Nc2ccccc2-c2cc3ccccc3[nH]2)cc1OC` [Compound 254] were less than 5 µM and “B (B (Fold Activation <250%))”.
With `COc1cc(C(=O)Nc2ccccc2-c2cc3ccccc3[nH]2)cc(OC)c1OC` [Compound 255], the EC50 under setting [1] is less than 5 µM. Besides, the “FOLD ACT. MS” value under setting [3] was “B (B (Fold Activation <250%))”.
For `COC(=O)c1ccc(-n2cncn2)c(NC(=O)c2ccc(OC)c(OC)c2)c1` [Compound 258], the EC50 under setting [1] was in the range of 5 to 50 µM. Moreover, the “FOLD ACT. MS” value under setting [3] was “B (B (Fold Activation <250%))”.
In the same order, the values of `COc1cc(C(=O)Nc2cccc(-c3nc4ccccc4[nH]3)n2)cc(OC)c1OC` [Compound 259] are less than 5 µM and “A (A (Fold activation >250%))”.
In the same order, the values of `COc1ccc(C(=O)Nc2cccc(-c3nc4ccccc4[nH]3)n2)cc1OC` [Compound 260] are less than 5 µM and “A (A (Fold activation >250%))”.
Taken in the same sequence, the figures for `COc1ccc(C(=O)Nc2ccc(-c3nc4ccccc4[nH]3)cc2)c(OC)c1` [Compound 262] were less than 5 µM and “B (B (Fold Activation <250%))”.
With `COc1cc(C(=O)Nc2ccc(-c3nc4ccccc4[nH]3)cc2)cc(OC)c1OC` [Compound 263], the EC50 under setting [1] fell in the range of 5 to 50 µM. For the same compound, the “FOLD ACT. MS” value under setting [3] was “B (B (Fold Activation <250%))”.
In the same order, the values of `COc1ccc(C(=O)Nc2ccccc2-c2cn3ccccc3n2)c(OC)c1` [Compound 265] are 5 to 50 µM and “B (B (Fold Activation <250%))”.
In the same order, the values of `COc1ccc(C(=O)Nc2ccccc2-c2cn3ccccc3n2)cc1OC` [Compound 266] are less than 5 µM and “A (A (Fold activation >250%))”.

The values are drawn from patent publication US8044198B2, “Sirtuin modulating compounds” (Sirtris Pharmaceuticals, Inc., priority 2005, dated 2011).
